Assay results reported in patent US11118200B2, “Method for preparing amines from aldehydes and ketones by biocatalysis” (COMMISSARIAT A L'ENERGIE ATOMIQUE ET AUX ENERGIES …, priority 2017, dated 2021).
Marks after values point to notes of the source that are not given here.

Tests used:
[1] = system: enzyme of SEQ ID NO:6; assay: Screening of carbonyl-containing compounds with ammonia as amine source (specific activity, absorbance at 340 nm); type: biochemical, Mycobacterium sp. GA-2829; conditions: mixture NADH/NADPH (0.1 mM each), 10 mM of carbonyl-containing compound
Procedure: (§1) All the reactions were conducted at 25° C. in spectrophotometric cell (10 mm light path). […] Carbonyl-containing compound (5 or 10 mM) is then added to initiate the reaction (reaction final volume 100 μL). The initial slope measured at 340 nm determined the specific activity of the enzyme according to Beer-Lambert's law and the molar absorptivity of β-NADH (ϵ=6298 M^−1 cm^−1).

[2] = system: enzyme of SEQ ID NO:5; assay: as above; type: biochemical, Mycobacterium vaccae ATCC 25954; conditions: mixture NADH/NADPH (0.1 mM each), 5 mM of carbonyl-containing compound
Procedure: as §1

[3] = system: enzyme of SEQ ID NO:1; assay: Reduction of cyclic imine substrates; type: biochemical, Mycobacterium smegmatis
[4] = system: enzyme of SEQ ID NO:2; assay: Reduction of cyclic imine substrates; type: biochemical, Cystobacter fuscus DSM 2262
[5] = system: enzyme of SEQ ID NO:3; assay: Reduction of cyclic imine substrates; type: biochemical, Microbacterium sp. MA1
[6] = system: enzyme of SEQ ID NO:4; assay: Reduction of cyclic imine substrates; type: biochemical, Aminomonas paucivorans DSM 12260
[7] = system: enzyme of SEQ ID NO:3; assay: Screening of carbonyl-containing compounds with methylamine as amine source; type: biochemical, Microbacterium sp. MA1; conditions: preliminary
Procedure: (§2) All the reactions were conducted at 25° C. in spectrophotometric cell (10 mm light path). To a mixture of TRIS.HCl buffer (50 mM, pH 9.5), NADH and NADPH (0.1 mM each), methylamine (500 mM) and an appropriate amount of purified enzyme was added. Carbonyl-containing compound (5 mM) is then added to initiate the reaction (reaction final volume 100 μL). The initial slope measured at 340 nm determined the specific activity of the enzyme according to Beer-Lambert's law and the molar absorptivity of β-NADH (ϵ=6298 M^−1 cm^−1).

[8] = system: enzyme of SEQ ID NO:5; assay: as above; type: biochemical, Mycobacterium vaccae ATCC 25954; conditions: preliminary
Procedure: as §2

[9] = system: enzyme of SEQ ID NO:1; assay: Screening of carbonyl-containing compounds with ammonia as amine source (specific activity, absorbance at 340 nm); type: biochemical, Mycobacterium smegmatis; conditions: 0.2 mM NADH (best of NADH/NADPH), 10 mM of carbonyl-containing compound, ammonia as amine source
Procedure: (§3) All the reactions were conducted at 25° C. in spectrophotometric cell (10 mm light path). To a mixture of ammonium formate buffer (2 M NH4HCO2/NH4OH, pH 9.5), NADH or NADPH (0.2 mM) and an appropriate amount of purified enzyme was added.

[10] = system: enzyme of SEQ ID NO:1; assay: Screening of carbonyl-containing compounds with methylamine as amine source; type: biochemical, Mycobacterium smegmatis; conditions: preliminary
Procedure: as §2

[11] = system: enzyme of SEQ ID NO:2; assay: Screening of carbonyl-containing compounds with ammonia as amine source (specific activity, absorbance at 340 nm); type: biochemical, Cystobacter fuscus DSM 2262; conditions: 0.2 mM NADH (best of NADH/NADPH), 10 mM of carbonyl-containing compound, ammonia as amine source
Procedure: as §3

[12] = target: PheDH-AmDH K77S/N276L (Pseudobacillus badius, UniProt Q59224, K78S/N277L); conditions: prior-art engineered enzyme; cited from earlier work
Sequence of PheDH-AmDH K77S/N276L (Q59224 whole entry K78S/N277L): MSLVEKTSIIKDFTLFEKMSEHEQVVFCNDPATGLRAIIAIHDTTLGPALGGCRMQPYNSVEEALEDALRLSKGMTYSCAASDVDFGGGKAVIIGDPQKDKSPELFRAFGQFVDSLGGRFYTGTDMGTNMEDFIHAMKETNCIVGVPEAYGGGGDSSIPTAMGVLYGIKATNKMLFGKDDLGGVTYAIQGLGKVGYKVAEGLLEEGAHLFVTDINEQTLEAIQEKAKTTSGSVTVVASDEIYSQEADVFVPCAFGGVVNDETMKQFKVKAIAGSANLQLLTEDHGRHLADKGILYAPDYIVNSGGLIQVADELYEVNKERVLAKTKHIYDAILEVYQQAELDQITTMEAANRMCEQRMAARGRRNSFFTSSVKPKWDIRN

[13] = system: Cal-AmDH; conditions: as described in Pushpanath et al.; cited from earlier work
[14] = system: enzyme of SEQ ID NO:3; assay: Screening of carbonyl-containing compounds with ammonia as amine source (specific activity, absorbance at 340 nm); type: biochemical, Microbacterium sp. MA1; conditions: 0.2 mM NADH (best of NADH/NADPH), 10 mM of carbonyl-containing compound, ammonia as amine source
Procedure: as §3

[15] = system: Bbad-AmDH; conditions: as described in Pushpanath et al.; cited from earlier work
[16] = methylamine (500 mM) as amine source, NADH/NADPH (0.1 mM each), carbonyl-containing compound 5 mM

Compound: O=C1CCCCC1 [drawing 168]
- Specific activity, SEQ ID NO: 6 [1]: 13.9 mU.mg^-1
- Specific activity, SEQ ID NO: 5 [2]: 75.6 mU.mg^-1

Compound: CC1=NCCC1
- reduction of cyclic imine by enzyme of SEQ ID NO:1 (in words) [3]: able to catalyze
- reduction of cyclic imine by enzyme of SEQ ID NO:2 (in words) [4]: able to catalyze
- reduction of cyclic imine by enzyme of SEQ ID NO:3 (in words) [5]: able to catalyze
- reduction of cyclic imine by enzyme of SEQ ID NO:4 (in words) [6]: able to catalyze

Compound: O=C1CCCCC1 [cyclohexanone]
- Specific activity, SEQ ID NO: 3 [7, 16]: 90.4 mU.mg-^1
- activity of enzyme of SEQ ID NO:3 on the substrate with methylamine (in words) ([7]; methylamine as amine source): active
- Specific activity, SEQ ID NO: 5 [8, 16]: 12.6 mU.mg-^1
- activity of enzyme of SEQ ID NO:5 on the substrate with methylamine (in words) ([8]; methylamine as amine source): active
- Specific activity, SEQ ID NO: 1 [9]: 196.2 mU.mg^-1
- Specific activity, SEQ ID NO: 1 ([9]; listed as drawing 130): 196.2^a mU.mg^-1
- Specific activity, SEQ ID NO: 1 [10, 16]: 10.1 mU.mg-^1
- activity of enzyme of SEQ ID NO:1 on the substrate with methylamine (in words) ([10]; methylamine as amine source): active
- Specific activity, SEQ ID NO: 2 [11]: 135.9 mU.mg^-1
- Specific activity, SEQ ID NO: 2 ([11]; listed as drawing 130): 135.9^a mU.mg^-1
- specific activity of PheDH-AmDH K77S/N276L [12]: 27 mU·mg^−1
- specific activity of Cal-AmDH [13]: 12.7 mU·mg^−1
- Specific activity, SEQ ID NO: 3 [14]: 614.5 mU.mg^-1
- Specific activity, SEQ ID NO: 3 ([14]; listed as drawing 130): 614.5^a mU.mg^-1
- specific activity of Bbad-AmDH [15]: 11.3 mU·mg^−1
